Measured values reported in the supplement of paper PMC10307832.

Columns and labels:
Assay in all cases: relative viability (nuclei count vs DMSO), 5 days (fraction); higher = more cells survive
NCI-H1299 = system: NCI-H1299
Procedure, shortened: (§1)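 Each reported value is a median over duplicate plates. It expresses relative viability: treated-well nuclei count divided by vehicle-well nuclei count. Lung cancer cell lines in 1536-well plates were dosed by pin tool a day after seeding, alone with one drug or with a fixed anchor-drug dose plus five library-drug doses (not always all listed) in √10 steps, and nuclei were counted after 5 days.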

NCI-H1650 = system: NCI-H1650
Procedure, shortened: as §1

A-427 = system: A-427
Procedure, shortened: as §1

SK-MES-1 = system: SK-MES-1
Procedure, shortened: as §1

NCI-H1975 = system: NCI-H1975
Procedure, shortened: as §1

NCI-H2347 = system: NCI-H2347
Procedure, shortened: as §1

HCC-78 = system: HCC-78
Procedure, shortened: as §1

COR-L23 = system: COR-L23
Procedure, shortened: as §1

EPLC-272H = system: EPLC-272H
Procedure, shortened: as §1

HCC-366 = system: HCC-366
Procedure, shortened: as §1

NCI-H647 = system: NCI-H647
Procedure, shortened: as §1

A549 = system: A549
Procedure, shortened: as §1

NCI-H460 = system: NCI-H460
Procedure, shortened: as §1

COR-L 105 = system: COR-L 105
Procedure, shortened: as §1

NCI-H1437 = system: NCI-H1437
Procedure, shortened: as §1

SW 900 = system: SW 900
Procedure, shortened: as §1

IA-LM = system: IA-LM
Procedure, shortened: as §1

NCI-H520 = system: NCI-H520
Procedure, shortened: as §1

NCI-H358 = system: NCI-H358
Procedure, shortened: as §1

EKVX = system: EKVX
Procedure, shortened: as §1

NCI-H2009 = system: NCI-H2009
Procedure, shortened: as §1

LK-2 = system: LK-2
Procedure, shortened: as §1

HOP-62 = system: HOP-62
Procedure, shortened: as §1

Nc1cccc2c1CN(C1CCC(=O)NC1=O)C2=O (stereo not given) [Lenalidomide] + COc1cc2c(Oc3ccc(NC(=O)C4(C(=O)Nc5ccc(F)cc5)CC4)cc3F)ccnc2cc1OCCCN1CCOCC1 [Foretinib] (partner 0.25 µM)
relative viability (NCI-H1299; first compound 0.253 µM): 1.1 | relative viability (NCI-H1299; first compound 0.8 µM): 1.08 | relative viability (NCI-H1299; first compound 2.53 µM): 1.09 | relative viability (NCI-H1299; first compound 8 µM): 1.13 | relative viability (NCI-H1650; first compound 0.8 µM): 1.46 | relative viability (NCI-H1650; first compound 2.53 µM): 1.18 | relative viability (NCI-H1650; first compound 8 µM): 1.37 | relative viability (A-427; first compound 0.253 µM): 1.11 | relative viability (A-427; first compound 0.8 µM): 0.93 | relative viability (A-427; first compound 2.53 µM): 1.13 | relative viability (A-427; first compound 8 µM): 1.11 | relative viability (SK-MES-1; first compound 0.253 µM): 0.944 | relative viability (SK-MES-1; first compound 0.8 µM): 0.991 | relative viability (SK-MES-1; first compound 2.53 µM): 1.02 | relative viability (SK-MES-1; first compound 8 µM): 0.844 | relative viability (NCI-H1975; first compound 0.253 µM): 0.942 | relative viability (NCI-H1975; first compound 0.8 µM): 0.823 | relative viability (NCI-H1975; first compound 2.53 µM): 1.07 | relative viability (NCI-H1975; first compound 8 µM): 1.14 | relative viability (NCI-H2347; first compound 0.253 µM): 0.881 | relative viability (NCI-H2347; first compound 0.8 µM): 1.05 | relative viability (NCI-H2347; first compound 2.53 µM): 0.956 | relative viability (NCI-H2347; first compound 8 µM): 0.364 | relative viability (HCC-78; first compound 0.253 µM): 0.673 | relative viability (HCC-78; first compound 0.8 µM): 0.526 | relative viability (HCC-78; first compound 2.53 µM): 0.516 | relative viability (HCC-78; first compound 8 µM): 0.514 | relative viability (COR-L23; first compound 0.253 µM): 0.897 | relative viability (COR-L23; first compound 0.8 µM): 0.998 | relative viability (COR-L23; first compound 2.53 µM): 1.08 | relative viability (COR-L23; first compound 8 µM): 1.15 | relative viability (EPLC-272H; first compound 0.253 µM): 0.795 | relative viability (EPLC-272H; first compound 0.8 µM): 0.658 | relative viability (EPLC-272H; first compound 2.53 µM): 0.681 | relative viability (EPLC-272H; first compound 8 µM): 0.549 | relative viability (HCC-366; first compound 0.253 µM): 0.916 | relative viability (HCC-366; first compound 0.8 µM): 1.04 | relative viability (HCC-366; first compound 2.53 µM): 0.915 | relative viability (HCC-366; first compound 8 µM): 0.929 | relative viability (NCI-H647; first compound 0.253 µM): 0.856 | relative viability (NCI-H647; first compound 0.8 µM): 1.12 | relative viability (NCI-H647; first compound 2.53 µM): 1.21 | relative viability (NCI-H647; first compound 8 µM): 1.11 | relative viability (A549; first compound 0.253 µM): 0.925 | relative viability (A549; first compound 0.8 µM): 0.954 | relative viability (A549; first compound 2.53 µM): 1.04 | relative viability (A549; first compound 8 µM): 0.897 | relative viability (NCI-H460; first compound 0.253 µM): 0.964 | relative viability (NCI-H460; first compound 0.8 µM): 1.02 | relative viability (NCI-H460; first compound 2.53 µM): 1.14 | relative viability (NCI-H460; first compound 8 µM): 1.07 | relative viability (COR-L 105; first compound 0.253 µM): 0.855 | relative viability (COR-L 105; first compound 0.8 µM): 0.822 | relative viability (COR-L 105; first compound 2.53 µM): 1.12 | relative viability (COR-L 105; first compound 8 µM): 1.16 | relative viability (NCI-H1437; first compound 0.253 µM): 1.34 | relative viability (NCI-H1437; first compound 0.8 µM): 1.25 | relative viability (NCI-H1437; first compound 2.53 µM): 1.32 | relative viability (NCI-H1437; first compound 8 µM): 1.46 | relative viability (SW 900; first compound 0.253 µM): 0.785 | relative viability (SW 900; first compound 2.53 µM): 0.879 | relative viability (SW 900; first compound 8 µM): 0.884 | relative viability (IA-LM; first compound 0.253 µM): 0.952 | relative viability (IA-LM; first compound 0.8 µM): 1.15 | relative viability (IA-LM; first compound 2.53 µM): 1.28 | relative viability (IA-LM; first compound 8 µM): 1.07 | relative viability (NCI-H520; first compound 0.253 µM): 0.805 | relative viability (NCI-H520; first compound 0.8 µM): 0.627 | relative viability (NCI-H520; first compound 2.53 µM): 0.875 | relative viability (NCI-H520; first compound 8 µM): 0.711 | relative viability (NCI-H358; first compound 0.253 µM): 0.47 | relative viability (NCI-H358; first compound 0.8 µM): 0.987 | relative viability (NCI-H358; first compound 2.53 µM): 0.791 | relative viability (NCI-H358; first compound 8 µM): 0.797 | relative viability (EKVX; first compound 0.253 µM): 0.806 | relative viability (EKVX; first compound 0.8 µM): 0.772 | relative viability (EKVX; first compound 2.53 µM): 0.46 | relative viability (EKVX; first compound 8 µM): 0.932 | relative viability (NCI-H2009; first compound 0.253 µM): 1.24 | relative viability (NCI-H2009; first compound 0.8 µM): 1.23 | relative viability (NCI-H2009; first compound 2.53 µM): 1.32 | relative viability (NCI-H2009; first compound 8 µM): 1.22 | relative viability (LK-2; first compound 0.253 µM): 1.57 | relative viability (LK-2; first compound 0.8 µM): 1.17 | relative viability (LK-2; first compound 2.53 µM): 1.24 | relative viability (LK-2; first compound 8 µM): 0.847 | relative viability (HOP-62; first compound 0.253 µM): 0.989 | relative viability (HOP-62; first compound 0.8 µM): 1.03 | relative viability (HOP-62; first compound 2.53 µM): 1.28 | relative viability (HOP-62; first compound 8 µM): 1.2
